Patent US20220378801A1, “NOVEL COMPOUNDS” (AC Immune SA, priority 2019, published 2022)

Assays:
Assay type in all cases: cell-based
NLRP3 inflammasome [1] = target: T1, NLRP3 inflammasome (Homo sapiens, UniProt Q96P20); test: NLRP3 inflammasome activation assay, IL-1 beta release, human monocyte-like cells, Nigericin stimulation; design: endogenous in cells; settings: PMA-differentiated, LPS-primed human monocyte-like cells; Nigericin 3.75 μM 3 h; IL-1β by AlphaLISA
Method: (§1) The following assays can be used to determine the inhibitory activity of test compounds on the NLRP3 inflammasome using common stimuli nigericin (Invivogen) or monosodium urate crystals (MSU)(Invivogen).
(§2) Human monocyte-like cells are cultured in RPM11640 Glutamax medium supplemented with 10% heat inactivated FCS and 50 U/ml penicillin-streptomycin (Life Technologies). HMDM (Human Monocyte Derived Macrophage) are isolated from human blood with leucosep tubes and classical monocyte isolation kit from Miltenyi based on negative selection.
(§3) NLRP3 inflammasome activation assays Human monocyte-like cells are seeded at 75000 per well in a 96 well plate and differentiated overnight into macrophages with 10 ng/ml PMA (Phorbol Myristate Acetate). The following day, medium containing 10 ng/ml LPS (lipopolysaccharide) is added. After 3 h of LPS priming, concentrations of test compound in the range from 100 μM to 6 nM are added 30 min prior to NLRP3 inflammasome stimulation with Nigericin 3.75 μM or MSU 150 μg/ml for 3 h.
(§4) For IL-1β quantification, supernatants are analyzed using AlphaLISA kits according to the manufacturer's instructions (Perkin Elmer AlphaLISA AL220F).
(§5) IC50 (concentration corresponding to 50% inhibition) were determined using GraphPad Prism 8.

NLRP3 inflammasome [2] = target: T1, NLRP3 inflammasome; test: NLRP3 inflammasome activation assay, IL-1 beta release, human monocyte-like cells, MSU stimulation; design: endogenous in cells; settings: PMA-differentiated, LPS-primed human monocyte-like cells; MSU 150 μg/ml 3 h; IL-1β by AlphaLISA
Method: as §1, §2, §3, §4, §5

NLRP3 inflammasome [3] = target: T1, NLRP3 inflammasome; test: NLRP3 inflammasome activation assay, IL-1 beta release, HMDM cells, Nigericin stimulation; settings: LPS-primed primary human monocyte-derived macrophages; Nigericin 2.5 μM 3 h; IL-1β by AlphaLISA
Method: as §1, §2
(§6) Primary human monocyte-derived macrophages (HMDM) are seeded at 30000 per well in a 96 well plate and differentiated into macrophages with 10 ng/ml Human M-CSF (Macrophage Colony Stimulating Factor). At DIV 8 (Day in vitro) medium containing 10 ng/ml LPS is added. After 3 h of LPS priming, concentrations of test compound in the range from […] are added 30 min prior to NLRP3 inflammasome stimulation with Nigericin 2.5 μM or MSU 150 μg/ml for 3 h.
as §4, §5

NLRP3 inflammasome [4] = target: T1, NLRP3 inflammasome; test: NLRP3 inflammasome activation assay, IL-1 beta release, HMDM cells, MSU stimulation; settings: LPS-primed primary human monocyte-derived macrophages; MSU 150 μg/ml 3 h; IL-1β by AlphaLISA
Method: as §1, §2, §6, §4, §5

T1 sequence (Q96P20 whole entry): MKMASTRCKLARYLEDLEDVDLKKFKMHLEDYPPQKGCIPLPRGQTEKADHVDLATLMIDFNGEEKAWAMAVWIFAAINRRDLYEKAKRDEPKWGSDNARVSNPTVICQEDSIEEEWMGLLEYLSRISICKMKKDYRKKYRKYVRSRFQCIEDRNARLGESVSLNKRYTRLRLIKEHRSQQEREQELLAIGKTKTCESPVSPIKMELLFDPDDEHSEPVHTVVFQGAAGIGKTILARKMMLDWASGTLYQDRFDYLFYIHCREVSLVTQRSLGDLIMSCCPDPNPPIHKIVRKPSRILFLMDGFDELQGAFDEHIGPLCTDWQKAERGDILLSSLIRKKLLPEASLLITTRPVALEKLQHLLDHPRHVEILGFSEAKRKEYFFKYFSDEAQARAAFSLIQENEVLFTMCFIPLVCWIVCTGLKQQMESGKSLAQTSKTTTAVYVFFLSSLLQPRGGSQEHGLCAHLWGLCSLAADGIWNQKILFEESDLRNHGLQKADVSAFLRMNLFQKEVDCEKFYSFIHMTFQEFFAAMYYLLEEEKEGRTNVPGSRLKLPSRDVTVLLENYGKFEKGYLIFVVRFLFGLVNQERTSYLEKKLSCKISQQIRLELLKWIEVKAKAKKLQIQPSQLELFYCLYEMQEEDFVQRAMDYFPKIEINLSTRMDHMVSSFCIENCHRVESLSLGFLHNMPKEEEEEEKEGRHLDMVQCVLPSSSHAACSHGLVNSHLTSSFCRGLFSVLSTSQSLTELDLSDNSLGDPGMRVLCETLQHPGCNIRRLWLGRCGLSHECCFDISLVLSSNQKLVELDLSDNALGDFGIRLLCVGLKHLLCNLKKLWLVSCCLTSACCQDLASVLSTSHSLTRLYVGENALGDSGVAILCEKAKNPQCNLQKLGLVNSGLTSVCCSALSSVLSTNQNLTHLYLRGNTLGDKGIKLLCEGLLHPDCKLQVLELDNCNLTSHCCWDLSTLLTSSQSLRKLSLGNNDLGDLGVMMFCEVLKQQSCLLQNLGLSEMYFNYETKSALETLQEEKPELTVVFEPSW

Compound | IC50 (NLRP3 inflammasome [1]) [µM] | IC50 (NLRP3 inflammasome [2]) [µM] | IC50 (NLRP3 inflammasome [3]) [µM] | IC50 (NLRP3 inflammasome [4]) [µM]
O=C(Nc1c2c(cc3c1CCC3)CCC2)NS1(=O)=NC(=O)c2ncccc21 (single isomer, unassigned) [Example 39] | 1 to 10 | 1 to 10 |  | 
O=C(N=S1(=O)NC(=O)c2ccc(Br)cc21)Nc1c2c(cc3c1CCC3)CCC2 (centres unmarked) [Example 24] | 1 to 10 | < 1 |  | 1 to 10
COc1cc(-c2cc(F)cc(C(C)C)c2NC(=O)NS2(=O)=NC(=O)c3sccc32)ccn1 (single isomer, unassigned) [Example 50] | 1 to 10 | 1 to 10 |  | 
Cc1cccc2c1C(=O)N=S2(=O)NC(=O)Nc1c2c(cc3c1CCC3)CCC2 (centres unmarked) [Example 14] | 1 to 10 | < 1 | 1 to 10 | 1 to 10
COc1ccc2c(c1)C(=O)N=S2(=O)NC(=O)Nc1c2c(cc3c1CCC3)CCC2 (centres unmarked) [Example 22] | 1 to 10 | < 1 |  | 
Cc1cccc2c1C(=O)N=S2(=O)NC(=O)Nc1c2c(cc3c1CCC3)CCC2 (single isomer, unassigned) [Example 47] | 1 to 10 | < 1 |  | 
CC(C)(O)c1ccc2c(c1)S(=O)(=NC(=O)Nc1c3c(cc4c1CCC4)CCC3)NC2=O (single isomer, unassigned) [Example 40] | 1 to 10 | < 1 |  | 1 to 10
O=C(Nc1c2c(cc3c1CCC3)CCC2)NS1(=O)=NC(=O)c2c(F)cccc21 (single isomer, unassigned) [Example 61] | 1 to 10 | < 1 |  | 
O=C(Nc1c(Br)ccc2c1CCO2)NS1(=O)=NC(=O)c2sccc21 (single isomer, unassigned) [Example 56] | 10 to 30 | 1 to 10 |  | 
O=C(Nc1c2c(c(F)c3c1CCC3)CCC2)NS1(=O)=NC(=O)c2sccc21 (single isomer, unassigned) [Example 54] | 1 to 10 | < 1 |  | 1 to 10
O=C(Nc1c2c(cc3c1CCC3)CCC2)NS1(=O)=NC(=O)c2c(Cl)cccc21 (single isomer, unassigned) [Example 43] | 1 to 10 | < 1 |  | 
O=C(Nc1c2c(cc3c1CCC3)CCC2)NS1(=O)=NC(=O)c2ncccc21 (centres unmarked) [Example 8] | 1 to 10 | 1 to 10 |  | 
O=C(Nc1c2c(cc3c1CCC3)CCC2)NS1(=O)=NC(=O)c2cc(Cl)ccc21 (centres unmarked) [Example 12] | 1 to 10 | 1 to 10 |  | 1 to 10
O=C(Nc1c2c(cc3c1CCC3)CCC2)NS1(=O)=NC(=O)c2ccc(Cl)cc21 (centres unmarked) [Example 13] | 1 to 10 | < 1 |  | 
O=C(Nc1c2c(cc3c1CCC3)CCC2)NS1(=O)=NC(=O)c2cc(F)ccc21 (centres unmarked) [Example 26] | 1 to 10 | < 1 |  | < 1
COC(=O)c1ccc2c(c1)S(=O)(=NC(=O)Nc1c3c(cc4c1CCC4)CCC3)NC2=O (centres unmarked) [Example 9] | 1 to 10 | 1 to 10 |  | 
COc1cc(-c2ccc3c(c2NC(=O)NS2(=O)=NC(=O)c4sccc42)CCC3)ccn1 (single isomer, unassigned) [Example 52] | 1 to 10 | 1 to 10 |  | 
CC(C)c1ccc2c(c1NC(=O)NS1(=O)=NC(=O)c3sccc31)CCO2 (single isomer, unassigned) [Example 49] | 1 to 10 | < 1 |  | 
N#Cc1ccc2c(c1)C(=O)N=S2(=O)NC(=O)Nc1c2c(cc3c1CCC3)CCC2 (centres unmarked) [Example 10] | 1 to 10 | < 1 |  | 
O=C(Nc1c2c(cc3c1CCC3)CCC2)NS1(=O)=NC(=O)c2c(F)cccc21 (centres unmarked) [Example 25] | 1 to 10 | < 1 |  | < 1
O=C(Nc1c2c(cc3c1CCC3)CCC2)NS1(=O)=NC(=O)c2cc(Br)ccc21 (single isomer, unassigned) [Example 59] | 1 to 10 | 1 to 10 |  | 
O=C(Nc1c2c(cc3c1CCC3)CCC2)NS1(=O)=NC(=O)c2ccc(F)cc21 (single isomer, unassigned) [Example 63] | 1 to 10 | < 1 |  | 1 to 10
Cc1cccc2c1C(=O)N=S2(=O)NC(=O)Nc1c2c(cc3c1CCC3)CCC2 (single isomer, unassigned) [Example 46] | 1 to 10 | < 1 |  | 
O=C(Nc1c2c(cc3c1CCC3)CCC2)NS1(=O)=NC(=O)c2ccncc21 (single isomer, unassigned) [Example 38] | 1 to 10 | < 1 |  | 
O=C(Nc1c2c(cc3c1CCC3)CCC2)NS1(=O)=NC(=O)c2ccncc21 (centres unmarked) [Example 7] | 1 to 10 | < 1 |  | 1 to 10
O=C(Nc1c2c(cc3c1CCC3)CCC2)NS1(=O)=NC(=O)c2sccc21 (single isomer, unassigned) [Example 35] | 1 to 10 | < 1 |  | 1 to 10
O=C(Nc1cc2c(c3c1CCC3)CCC2)NS1(=O)=NC(=O)c2ccccc21 (centres unmarked) [Example 6] | 1 to 10 | 1 to 10 |  | 1 to 10

Now from value to compound:

IC50 (NLRP3 inflammasome [1]) [µM] | IC50 (NLRP3 inflammasome [2]) [µM] | IC50 (NLRP3 inflammasome [3]) [µM] | IC50 (NLRP3 inflammasome [4]) [µM] | Compound
1 to 10 | < 1 |  |  | O=C(Nc1c2c(cc3c1CCC3)CCC2)NS1(=O)=NC(=O)c2cc(Br)ccc21 (single isomer, unassigned) [Example 58]
1 to 10 | < 1 | 1 to 10 | < 1 | O=C(Nc1c2c(c(F)c3c1CCC3)CCC2)NS1(=O)=NC(=O)c2ccccc21 (centres unmarked) [Example 5]
1 to 10 | < 1 |  |  | O=C(Nc1c2c(cc3c1CCC3)CCC2)NS1(=O)=NC(=O)c2cc(Br)ccc21 (centres unmarked) [Example 23]
< 1 | < 1 | 1 to 10 |  | O=C(Nc1c2c(cc3c1CCC3)CCC2)NS1(=O)=NC(=O)c2nc(Cl)ccc21 (single isomer, unassigned) [Example 64]
1 to 10 | < 1 |  |  | O=C(Nc1c2c(cc3c1CCC3)CCC2)NS1(=O)=NC(=O)c2cc(Cl)ccc21 (single isomer, unassigned) [Example 44]
1 to 10 | < 1 |  |  | O=C(Nc1c2c(cc3c1CCC3)CCC2)NS1(=O)=NC(=O)c2ccc(F)cc21 (centres unmarked) [Example 28]
1 to 10 | < 1 |  |  | O=C(N=S1(=O)NC(=O)c2ccc(C(F)(F)F)cc21)Nc1c2c(cc3c1CCC3)CCC2 (centres unmarked) [Example 27]
1 to 10 | < 1 |  | 1 to 10 | O=C(N=S1(=O)NC(=O)c2cccnc21)Nc1c2c(cc3c1CCC3)CCC2 (centres unmarked) [Example 2]
1 to 10 | < 1 | 1 to 10 | 1 to 10 | O=C(Nc1c2c(cc3c1CCC3)CCC2)NS1(=O)=NC(=O)c2c(Cl)cccc21 (centres unmarked) [Example 11]
1 to 10 | < 1 |  |  | O=C(N=S1(=O)NC(=O)c2cccnc21)Nc1c2c(cc3c1CCC3)CCC2 (single isomer, unassigned) [Example 32]
1 to 10 | < 1 | 1 to 10 | < 1 | O=C(N=S1(=O)NC(=O)c2ccccc21)Nc1c2c(cc3c1CCC3)CCC2 (single isomer, unassigned) [Example 1b]
< 1 | < 1 | 1 to 10 | < 1 | O=C(Nc1c2c(cc3c1CCC3)CCC2)NS1(=O)=NC(=O)c2sccc21 (centres unmarked) [Example 4]
< 1 | < 1 |  |  | COc1cc(-c2cc(F)cc(C(C)C)c2NC(=O)NS2(=O)=NC(=O)c3sccc32)ccn1 (centres unmarked) [Example 17]
< 1 | < 1 | < 1 | < 1 | O=C(Nc1c2c(c(F)c3c1CCC3)CCC2)NS1(=O)=NC(=O)c2sccc21 (single isomer, unassigned) [Example 55]
1 to 10 | < 1 |  |  | O=C(Nc1c2c(cc3c1CCC3)CCC2)NS1(=O)=NC(=O)c2ccccc2C1 (single isomer, unassigned) [Example 33]
1 to 10 | < 1 |  |  | O=C(Nc1c2c(cc3c1CCC3)CCC2)NS1(=O)=NC(=O)c2ccc(Cl)cc21 (single isomer, unassigned) [Example 45]
< 1 | < 1 |  |  | COc1cc(-c2ccc3c(c2NC(=O)NS2(=O)=NC(=O)c4sccc42)CCC3)ccn1 (single isomer, unassigned) [Example 53]
< 1 | < 1 |  |  | COc1cc(-c2cc(F)cc(C(C)C)c2NC(=O)NS2(=O)=NC(=O)c3sccc32)ccn1 (single isomer, unassigned) [Example 51]
< 1 | < 1 |  |  | COc1ccc2c(c1)S(=O)(NC(=O)Nc1c3c(cc4c1CCC4)CCC3)=NC2=O (centres unmarked) [Example 15]
